The term GI50 denotes the concentration giving 50% growth inhibition. The TGI is the concentration giving total growth inhibition. High values mean less potent growth arrest, low ones more potent growth arrest.

Eight compounds from PubChem BioAssay (NCI) can be followed below.

Common to all, as to assay: DTP human tumour cell line panel, 48 h
Assay [1] concerns SF-539 CNS.
Assay [2] has as its system HCT-116 colon.
The test system of assay [3] is OVCAR-4 ovarian.
For assay [4], the system named is UACC-62 melanoma.
The subject of assay [5] is IGROV1 ovarian.
The subject of assay [6] is SF-295 CNS.
The subject of assay [7] is PC-3 prostate.
For assay [8], the system named is NCI-H522 lung.
Assay [9] relates to NCI-H226 lung.
Assay [10] concerns MALME-3M melanoma.

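Cultured in 96-well plates, cells were exposed to test compound for 48 hours across five concentrations. GI50 is the concentration that inhibits growth by half. TGI: concentration producing complete growth inhibition.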

As to `COc1ccc(/C=C(\C)[N+](=O)[O-])cc1OC`, the GI50 in assay [1] was 1.74 µM; in assay [2], 1.81 µM; in assay [3] it was 1.97 µM; in [4], 1.82 µM; in assay [5], 2.16 µM; in assay [6] it was 17.8 µM. Moreover, the GI50 is 2.75 µM in assay [7], 1.34 µM in assay [8], 19.2 µM in assay [9] and 1.4 µM in [10]. The TGI was determined as 3.17 µM in [1]; 3.46 µM in [2]; 4.91 µM in assay [3]; 3.87 µM in [4]; 5.51 µM in assay [5]; 32.3 µM in assay [6]. Also, the TGI is 7.07 µM in [7], 2.94 µM in assay [8], 40.5 µM in [9] and 3.17 µM in [10].
Turning to `Oc1cc(-n2cccn2)c(O)cc1-n1cccn1`, the TGI in assay [1] was more than 78.6 µM; in assay [2], more than 64.1 µM; in [3] it was 36.9 µM; in assay [4] it was 71.3 µM; in assay [5], more than 75.9 µM; in assay [6], 60.2 µM. Moreover, the TGI in [7] was 44.8 µM; in assay [8] it was 26.8 µM; in assay [9] it was more than 89 µM; in assay [10] it was more than 78.1 µM.
For the compound `Fc1ccc(/C=N/n2c(-c3ccc(F)c(Cl)c3)n[nH]c2=S)cc1`, the GI50 in assay [1] is 32 µM; in assay [2] it was 16.3 µM; in assay [3], 19.9 µM; in assay [4], 22.8 µM; in assay [5], 20.6 µM; in assay [6], 31.7 µM. In addition, the GI50 in assay [7] is 27.3 µM; in assay [8], 23.3 µM; in assay [9], 36.5 µM; in [10] it was 18.3 µM. Besides, the TGI is more than 100 µM in assay [1]; 29.9 µM in [2]; 39.9 µM in assay [3]; 49 µM in [4]; 48.8 µM in assay [5]; 76.8 µM in assay [6]. Further, the concentration for total growth inhibition (TGI) is more than 100 µM in assay [7], 52.2 µM in [8], 83.8 µM in assay [9] and 60.2 µM in assay [10].
Turning to `Cc1cc(C)c(C2CNCc3cc4c(cc32)CNCC4c2c(C)cc(C)cc2C)c(C)c1` (stereo not given), the GI50 was 2.23 µg/mL in assay [1]; 2.38 µg/mL in assay [2]; 2.48 µg/mL in [3]; 6.7 µg/mL in assay [4]; 4.68 µg/mL in assay [5]; 3.44 µg/mL in assay [6]. In addition, the GI50 was 5.67 µg/mL in assay [7], 3.23 µg/mL in assay [8], 13.4 µg/mL in assay [9] and 3.05 µg/mL in [10]. The TGI was 3.85 µg/mL in assay [1]; 6.14 µg/mL in assay [2]; 6.43 µg/mL in assay [3]; 15.4 µg/mL in assay [4]; 18 µg/mL in assay [5]; 13.1 µg/mL in assay [6]. For the same compound, the total growth inhibition concentration (TGI) was 15.6 µg/mL in [7], 9.18 µg/mL in [8], 26.5 µg/mL in assay [9] and 7.45 µg/mL in assay [10].
On to `COc1ccc2c(-c3ccnc(Nc4cccc(OC(F)(F)F)c4)n3)cnn2n1`, for which the GI50 is 0.909 µM in assay [1]; 1.03 µM in assay [2]; 3.32 µM in assay [3]; 0.863 µM in assay [4]; 2.39 µM in [5]; 0.683 µM in assay [6]. The GI50 in [7] is 0.987 µM; in [8], 0.366 µM; in assay [9], more than 10.3 µM; in assay [10] it was 5.43 µM. The TGI in [1] was 3.52 µM; in assay [2], 3.96 µM; in assay [3], 12.5 µM; in assay [4], 6.94 µM; in [5], more than 12.5 µM; in assay [6], more than 14.8 µM. Also, the TGI in assay [7] is more than 25 µM; in assay [8], 1.77 µM; in assay [9], more than 25 µM; in [10], more than 25 µM.
As for `O=c1c2cc(F)ccc2sc2c(NCCCNCCO)nc3ccccc3c12`, the GI50 in assay [1] was 1.74 µM; in assay [2], 1.73 µM; in [3], 1.92 µM; in assay [4], 1.73 µM; in assay [5] it was 1.43 µM; in assay [6] it was 1.77 µM. Moreover, the GI50 in [7] was 1.7 µM; in assay [8], 1.87 µM; in [9], 1.5 µM; in assay [10], 1.61 µM. For the same compound, the TGI is 3.19 µM in assay [1]; 3.32 µM in assay [2]; 4.05 µM in assay [3]; 3.23 µM in assay [4]; 2.9 µM in assay [5]; 3.26 µM in assay [6]. In addition, the TGI in assay [7] turned out to be 3.29 µM; in assay [8] it was 3.8 µM; in assay [9], 3 µM; in assay [10], 3.09 µM.
As for `Cc1[nH]c(-c2cc(N)ccc2Cl)c2c1C(=O)CCCC2`, the GI50 is 3.13 µM in assay [1]; 3.92 µM in [2]; 2.95 µM in [3]; 0.809 µM in assay [4]; 2.58 µM in [5]; 8.01 µM in [6]. In addition, the GI50 in assay [7] was 3.5 µM; in [8] it was 1.13 µM; in assay [9], 3.37 µM; in assay [10], 2.12 µM. Moreover, the total growth inhibition concentration (TGI) in [1] is 26.7 µM; in assay [2], more than 100 µM; in [3], more than 100 µM; in [4] it was 7.2 µM; in assay [5], 29.1 µM; in [6], more than 100 µM. Moreover, the TGI was more than 100 µM in assay [7], 15.2 µM in assay [8], more than 100 µM in [9] and 9.94 µM in [10].
Regarding `Oc1c(-c2cc(C(F)(F)F)[nH]n2)cc(Cl)c(OCc2ccc(Cl)cc2)c1-c1ccc(Cl)c(C(F)(F)F)c1`, the GI50 is 0.749 µM in assay [1]; 0.159 µM in [2]; 1.31 µM in [3]; 0.355 µM in assay [4]; 0.965 µM in [5]; 0.607 µM in assay [6]. Besides, the GI50 in assay [7] was 0.171 µM; in assay [8], 0.167 µM; in assay [9], 0.917 µM; in assay [10], 0.789 µM. The TGI in assay [1] turned out to be 2.72 µM; in [2], 0.705 µM; in assay [3], 7.41 µM; in assay [4] it was 1.42 µM; in assay [5], 5.93 µM; in assay [6] it was 1.96 µM. The TGI in [7] worked out at 5.09 µM; in assay [8], 1.72 µM; in assay [9], 2.68 µM; in assay [10] it was 2.19 µM.
